Assay results taken from PubChem BioAssay (NCI).
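Briefly, cells in 96-well plates were exposed to five compound concentrations for 48 h, and endpoints were estimated by linear interpolation. At the GI50, growth is halved. TGI marks complete inhibition of growth.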

Assays:
Assay in all cases: growth of human tumour cells (NCI), 48 h
NCI-H23 lung = tested on: NCI-H23 lung
NCI-H460 lung = tested on: NCI-H460 lung
NCI-H522 lung = tested on: NCI-H522 lung
NCI/ADR-RES ovarian = tested on: NCI/ADR-RES ovarian
OVCAR-4 ovarian = tested on: OVCAR-4 ovarian
OVCAR-5 ovarian = tested on: OVCAR-5 ovarian
OVCAR-8 ovarian = tested on: OVCAR-8 ovarian
PC-3 prostate = tested on: PC-3 prostate
RPMI-8226 leukemia = tested on: RPMI-8226 leukemia
RXF 393 renal = tested on: RXF 393 renal
SF-268 CNS = tested on: SF-268 CNS
SF-295 CNS = tested on: SF-295 CNS
SF-539 CNS = tested on: SF-539 CNS
SK-MEL-2 melanoma = tested on: SK-MEL-2 melanoma
SK-MEL-28 melanoma = tested on: SK-MEL-28 melanoma
SK-MEL-5 melanoma = tested on: SK-MEL-5 melanoma
SK-OV-3 ovarian = tested on: SK-OV-3 ovarian
SN12C renal = tested on: SN12C renal
SNB-19 CNS = tested on: SNB-19 CNS
SNB-75 CNS = tested on: SNB-75 CNS
SR leukemia = tested on: SR leukemia
SW-620 colon = tested on: SW-620 colon
T-47D breast = tested on: T-47D breast
TK-10 renal = tested on: TK-10 renal
U251 CNS = tested on: U251 CNS
UACC-257 melanoma = tested on: UACC-257 melanoma
UACC-62 melanoma = tested on: UACC-62 melanoma
UO-31 renal = tested on: UO-31 renal

Q: With `CNC[C@@H](NC(=O)c1ccc(-c2nc([C@H]3CC[C@H](O)[C@@H](F)C3)cnc2N)cc1F)c1cc(F)cc(Br)c1` as the compound, how does the GI50 (NCI-H23 lung) read?
A: 17.8 µM

Q: And the TGI (NCI-H23 lung)?
A: 35.3 µM

Q: What about the GI50 (NCI-H460 lung) of the same compound?
A: 17.7 µM

Q: What about the TGI (NCI-H460 lung) of the same compound?
A: 33.5 µM

Q: What about the GI50 (NCI-H522 lung) of the same compound?
A: 16.6 µM

Q: What about the TGI (NCI-H522 lung) of the same compound?
A: 32.4 µM

Q: And the GI50 (NCI/ADR-RES ovarian)?
A: 38.9 µM

Q: What about the TGI (NCI/ADR-RES ovarian) of the same compound?
A: > 100 µM

Q: What about the GI50 (OVCAR-4 ovarian) of the same compound?
A: 18.1 µM

Q: What about the TGI (OVCAR-4 ovarian) of the same compound?
A: 50.2 µM

Q: And the GI50 (OVCAR-5 ovarian)?
A: 16.4 µM

Q: What about the TGI (OVCAR-5 ovarian) of the same compound?
A: 40.2 µM

Q: What about the GI50 (OVCAR-8 ovarian) of the same compound?
A: 17.3 µM

Q: What about the TGI (OVCAR-8 ovarian) of the same compound?
A: 35 µM

Q: What about the GI50 (PC-3 prostate) of the same compound?
A: 12.3 µM

Q: And the TGI (PC-3 prostate)?
A: 25.5 µM

Q: What about the GI50 (RPMI-8226 leukemia) of the same compound?
A: 11.2 µM

Q: What about the TGI (RPMI-8226 leukemia) of the same compound?
A: 30.8 µM

Q: What about the GI50 (RXF 393 renal) of the same compound?
A: 6.28 µM

Q: What about the TGI (RXF 393 renal) of the same compound?
A: 21.1 µM

Q: And the GI50 (SF-268 CNS)?
A: 12.6 µM

Q: And the TGI (SF-268 CNS)?
A: 30.2 µM

Q: And the GI50 (SF-295 CNS)?
A: 17.1 µM

Q: What about the TGI (SF-295 CNS) of the same compound?
A: 32.5 µM

Q: And the GI50 (SF-539 CNS)?
A: 15.2 µM

Q: What about the TGI (SF-539 CNS) of the same compound?
A: 29.1 µM

Q: And the GI50 (SK-MEL-2 melanoma)?
A: 14 µM

Q: What about the TGI (SK-MEL-2 melanoma) of the same compound?
A: 28.7 µM

Q: And the GI50 (SK-MEL-28 melanoma)?
A: 17 µM

Q: And the TGI (SK-MEL-28 melanoma)?
A: 32.4 µM

Q: What about the GI50 (SK-MEL-5 melanoma) of the same compound?
A: 15.2 µM

Q: And the TGI (SK-MEL-5 melanoma)?
A: 29.3 µM

Q: And the GI50 (SK-OV-3 ovarian)?
A: 17 µM

Q: What about the TGI (SK-OV-3 ovarian) of the same compound?
A: 31.3 µM

Q: What about the GI50 (SN12C renal) of the same compound?
A: 16.5 µM

Q: And the TGI (SN12C renal)?
A: 32.9 µM

Q: And the GI50 (SNB-19 CNS)?
A: 17.7 µM

Q: And the TGI (SNB-19 CNS)?
A: 36 µM

Q: And the GI50 (SNB-75 CNS)?
A: 4.09 µM

Q: And the TGI (SNB-75 CNS)?
A: 23.5 µM

Q: And the GI50 (SR leukemia)?
A: 13.1 µM

Q: What about the TGI (SR leukemia) of the same compound?
A: 35.3 µM

Q: What about the GI50 (SW-620 colon) of the same compound?
A: 18.4 µM

Q: What about the TGI (SW-620 colon) of the same compound?
A: 34.5 µM

Q: What about the GI50 (T-47D breast) of the same compound?
A: 18.3 µM

Q: And the TGI (T-47D breast)?
A: 36.2 µM

Q: And the GI50 (TK-10 renal)?
A: 12.2 µM

Q: What about the TGI (TK-10 renal) of the same compound?
A: 28.9 µM

Q: And the GI50 (U251 CNS)?
A: 14.6 µM

Q: And the TGI (U251 CNS)?
A: 32.4 µM

Q: What about the GI50 (UACC-257 melanoma) of the same compound?
A: 15 µM

Q: What about the TGI (UACC-257 melanoma) of the same compound?
A: 30.5 µM

Q: And the GI50 (UACC-62 melanoma)?
A: 17.4 µM

Q: And the TGI (UACC-62 melanoma)?
A: 32.8 µM

Q: What about the GI50 (UO-31 renal) of the same compound?
A: 12.3 µM

Q: And the TGI (UO-31 renal)?
A: 26.4 µM
